One series concerns the target Clk2 (Homo sapiens, UniProt P49760). Briefly: Z'-LYTE kinase inhibition assay, Clk2. The class given is biochemical. Particulars: for inhibition at 1 µM: 1 µM compound, screening by Thermo Fisher Scientific; for IC50: ATP concentration equivalent to Km. From the text:
(§1) 3. Experimental procedure for protein kinases and inhibition assays.
(§2) 3.1 The Z ́ -LYTE biochemical assay for screening and IC 50 determination for Clk1, Dyrk1A, Dyrk1B, Clk2 and Clk3 kinases.
(§3) The assay employs a fluorescence-based, coupled-enzyme format and is based on the differential sensitivity of phosphorylated and non-phosphorylated peptides to proteolytic cleavage. The peptide substrate is labeled with two fluorophores-one at each end-that make up a FRET pair. In the primary reaction, the kinase transfers the gamma-phosphate of ATP to a single tyrosine, serine, or threonine residue in a synthetic FRET-peptide. In the secondary reaction, a site-specific protease recognizes and cleaves non-phosphorylated FRET-peptides. Phosphorylation of FRET-peptides suppresses cleavage by the Development Reagent. Cleavage disrupts FRET between the donor (i.e., coumarin) and acceptor (i.e., fluorescein) fluorophores on the FRET-peptide, whereas uncleaved, phosphorylated FRET-peptides maintain FRET. A ratiometric method, which calculates the ratio (the Emission Ratio) of donor emission to acceptor emission after excitation of the donor fluorophore at 400 nm, is used to quantitate reaction progress. Both cleaved and uncleaved FRET-peptides contribute to the fluorescence signals and therefore to the Emission Ratio. The extent of phosphorylation of the FRET-peptide can be calculated from the Emission Ratio. The Emission Ratio will remain low if the FRET-peptide is phosphorylated (i.e., no kinase inhibition) and will be high if the FRET-peptide is non-phosphorylated (i.e., kinase inhibition).
(§4) The IC 50 values were determined for compounds displaying significant % inhibition in the screening step. IC 50 determination was done through testing at a range of concentrations with two […]
(§5) two independent experiments. […]
Development Reagent A is added.
3.1.4 Clk2 kinase assay specific conditions:
The 2X Clk2 / Ser/Thr 06 mixture is prepared in 50 mM HEPES pH 7.5, 0.01% BRIJ-35, 10 mM […]
Ser/Thr 06 in 50 mM HEPES pH 7.5, 0.01% BRIJ-35, 10 mM MgCl2, 1 mM EGTA. […]
(§6) MgCl2, 1 mM EGTA, 0.02% NaN3. […]

For another series, the target named is Clk3 (Homo sapiens, UniProt P49761). Kind of series: Z'-LYTE kinase inhibition assay, Clk3. The class given is biochemical. As to conditions: 1 µM compound; screening by Thermo Fisher Scientific.
Excerpt: as §1, §2, §3, §4, §5
(§7) Development Reagent A is added. […]
3.1.5 Clk3 kinase assay specific conditions:
The 2X Clk3 / Ser/Thr 18 mixture is prepared in 50 mM Tris pH 8.5, 0.01% BRIJ-35, 10 mM […]
as §6
of Development Reagent A is added.

The subject of another series is Hela cells. Briefly: CCK-8 cell viability, Hela. As to conditions: Homo sapiens, 72 h; for inhibition at 20 µM: CCK-8, mean ± S.E.M. (n = 3), read-out: Hela % Inh. at μM; for IC50: CCK-8, 50% inhibition of viability. The class given is cell-based. How it is done: (§8) All cells were purchased from Bioresource Collection and Research Center (Hsinchu, Taiwan) and cultured in corresponding media supplemented with 10% fetal bovine serum, 1 × Antibiotic-Antimycotic at 37 °C in a humidified incubator with 5% CO2. […] T24 cells were cultured in McCoy’s 5a media. IEC-6 cells were cultured in DMEM media supplemented with 5% fetal bovine serum, 1 × Antibiotic–Antimycotic, and 0.1 unit/mL insulin.
(§9) Cells were incubated with the Cell Counting Kit-8 (CCK-8) reagent (TargetMol, Boston, MA, USA) at 37 °C for 2 h. The cell viability was determined by spectrophotometer at 450 nm.

The next series deals with Dyrk1B (Homo sapiens, UniProt Q9Y463). Briefly: Z'-LYTE kinase inhibition assay, Dyrk1B. The class given is biochemical. As to conditions: for IC50: ATP conc. equivalent to Km; for inhibition at 1 µM: read-out: Dyrk1B % Inh. At 1 µM.
Excerpt: as §1, §2, §3, §4, §5
3.1.3 Dyrk1B kinase assay specific conditions:
The 2X Dyrk1B / Ser/Thr 18 mixture is prepared in 50 mM HEPES pH 6.5, 0.01% BRIJ-35, 10 […]
mM MgCl2, 1 mM EGTA, 0.02% NaN3.
as §7, §6

For another series, the target named is Clk1 (Homo sapiens, UniProt P49759). Briefly: Z'-LYTE kinase inhibition assay, Clk1. The class given is biochemical. Particulars: for IC50: ATP conc. equivalent to Km; for inhibition at 1 µM: read-out: Clk1 % Inh. At 1 µM.
Excerpt: as §1, §2, §3, §4
two independent experiments.
3.1.1 Clk1 kinase assay specific conditions:
The 2x Clk1 / Ser/Thr 09 mixture is prepared in 50 mM HEPES pH 7.5, 0.01% BRIJ-35, 10 mM MgCl 2, 1 mM EGTA. The final 10 μL kinase reaction consists of 30 - 120 ng Clk1 and 2 μM Ser/Thr 09 in 50 mM HEPES pH 7.5, 0.01% BRIJ-35, 10 mM MgCl 2, 1 mM EGTA. After the 1 h

The next series deals with Dyrk1A (Homo sapiens, UniProt Q13627). Kind of series: Z'-LYTE kinase inhibition assay, Dyrk1A. The class given is biochemical. Particulars: for IC50: ATP conc. equivalent to Km; for inhibition at 1 µM: read-out: Dyrk1A % Inh. At 1 µM.
Excerpt: as §1, §2, §3, §4, §5
3.1.2 Dyrk1A kinase assay specific conditions:
The 2x Dyrk1A / Ser/Thr 18 mixture is prepared in 50 mM HEPES pH 7.5, 0.01% BRIJ-35, 10 […]
2 µM Ser/Thr 18 in 50 mM HEPES pH 7.5, 0.01% BRIJ-35, 10 mM MgCl 2, 1 mM EGTA. […]
as §7, §6

The test system of the next series is MCF-7 cells. Briefly: CCK-8 cell viability, MCF-7. Particulars: Homo sapiens, MCF7, 72 h, CCK-8, mean ± S.E.M. (n = 3), read-out: MCF-7 % Inh. at μM. It counts as cell-based. How it is done: as §8, §9
A further series deals with U87 cells. Briefly: CCK-8 cell viability, U87. The class given is cell-based. As to conditions: Homo sapiens, U-87 MG, 72 h; for inhibition at 20 µM: CCK-8, mean ± S.E.M. (n = 3), read-out: U87 % Inh. at μM. How it is done: as §8, §9
The test system of another series is HCT-116 cells. Kind of series: CCK-8 cell viability, HCT-116. Particulars: Homo sapiens, 72 h; for inhibition at 20 µM: HCT-116, read-out: HCT-[…] Inh. at 20 μM, CCK-8, mean ± S.E.M. (n = 3); for IC50: HCT-116, read-out: HCT-116 IC50 in µM, CCK-8, 50% inhibition of viability. The class given is cell-based. The method, then: as §8, §9
The test system of the next series is A549 cells. Kind of series: CCK-8 cell viability, A549. It counts as cell-based. Particulars: Homo sapiens, 72 h, CCK-8, mean ± S.E.M. (n = 3), read-out: A549 % Inh. at μM. The method, then: as §8, §9

Each structure is given as a SMILES string.

Dyrk1B, sequence (Q9Y463 whole entry): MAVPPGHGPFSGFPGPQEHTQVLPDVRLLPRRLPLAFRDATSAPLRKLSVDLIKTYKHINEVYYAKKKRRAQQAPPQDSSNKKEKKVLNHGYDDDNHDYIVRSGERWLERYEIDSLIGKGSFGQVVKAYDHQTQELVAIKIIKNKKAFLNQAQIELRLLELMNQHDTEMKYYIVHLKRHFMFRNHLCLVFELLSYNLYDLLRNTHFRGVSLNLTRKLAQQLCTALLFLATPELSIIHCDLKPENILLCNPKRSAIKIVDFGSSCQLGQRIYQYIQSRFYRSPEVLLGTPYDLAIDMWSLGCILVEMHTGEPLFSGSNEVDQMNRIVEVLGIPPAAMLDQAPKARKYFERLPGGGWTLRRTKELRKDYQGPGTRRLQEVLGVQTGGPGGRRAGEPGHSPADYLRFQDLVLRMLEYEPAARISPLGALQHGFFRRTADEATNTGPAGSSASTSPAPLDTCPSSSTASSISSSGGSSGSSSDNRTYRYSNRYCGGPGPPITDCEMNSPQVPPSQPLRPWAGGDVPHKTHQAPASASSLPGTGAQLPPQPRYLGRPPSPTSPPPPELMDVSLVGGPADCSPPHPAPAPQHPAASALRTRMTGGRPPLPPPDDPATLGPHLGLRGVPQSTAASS
Clk1, sequence (P49759 whole entry): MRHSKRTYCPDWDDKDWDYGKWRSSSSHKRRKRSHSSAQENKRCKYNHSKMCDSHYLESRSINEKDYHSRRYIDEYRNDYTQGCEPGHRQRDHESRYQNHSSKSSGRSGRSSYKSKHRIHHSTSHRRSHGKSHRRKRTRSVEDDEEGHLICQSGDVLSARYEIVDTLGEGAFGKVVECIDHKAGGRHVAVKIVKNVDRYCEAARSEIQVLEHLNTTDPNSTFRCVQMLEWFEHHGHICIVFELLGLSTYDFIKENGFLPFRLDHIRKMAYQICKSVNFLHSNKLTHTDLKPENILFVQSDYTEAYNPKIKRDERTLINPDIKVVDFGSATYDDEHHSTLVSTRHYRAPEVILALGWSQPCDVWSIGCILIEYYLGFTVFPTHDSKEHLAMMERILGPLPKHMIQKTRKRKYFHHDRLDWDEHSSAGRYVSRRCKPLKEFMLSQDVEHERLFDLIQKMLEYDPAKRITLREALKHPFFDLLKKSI
Clk3, sequence (P49761 whole entry): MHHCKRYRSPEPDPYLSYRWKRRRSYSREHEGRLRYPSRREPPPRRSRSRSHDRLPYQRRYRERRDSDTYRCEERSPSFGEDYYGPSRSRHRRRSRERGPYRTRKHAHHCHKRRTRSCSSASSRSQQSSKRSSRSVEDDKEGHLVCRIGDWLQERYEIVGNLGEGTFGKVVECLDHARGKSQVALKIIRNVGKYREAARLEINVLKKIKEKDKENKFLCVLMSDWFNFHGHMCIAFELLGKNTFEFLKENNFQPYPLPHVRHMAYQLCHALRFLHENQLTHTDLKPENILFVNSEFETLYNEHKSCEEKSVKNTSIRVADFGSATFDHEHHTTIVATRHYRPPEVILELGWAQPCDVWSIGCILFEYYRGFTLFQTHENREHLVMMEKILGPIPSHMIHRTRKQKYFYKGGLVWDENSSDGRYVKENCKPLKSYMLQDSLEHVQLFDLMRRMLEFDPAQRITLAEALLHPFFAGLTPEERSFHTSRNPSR
Clk2, sequence (P49760 whole entry): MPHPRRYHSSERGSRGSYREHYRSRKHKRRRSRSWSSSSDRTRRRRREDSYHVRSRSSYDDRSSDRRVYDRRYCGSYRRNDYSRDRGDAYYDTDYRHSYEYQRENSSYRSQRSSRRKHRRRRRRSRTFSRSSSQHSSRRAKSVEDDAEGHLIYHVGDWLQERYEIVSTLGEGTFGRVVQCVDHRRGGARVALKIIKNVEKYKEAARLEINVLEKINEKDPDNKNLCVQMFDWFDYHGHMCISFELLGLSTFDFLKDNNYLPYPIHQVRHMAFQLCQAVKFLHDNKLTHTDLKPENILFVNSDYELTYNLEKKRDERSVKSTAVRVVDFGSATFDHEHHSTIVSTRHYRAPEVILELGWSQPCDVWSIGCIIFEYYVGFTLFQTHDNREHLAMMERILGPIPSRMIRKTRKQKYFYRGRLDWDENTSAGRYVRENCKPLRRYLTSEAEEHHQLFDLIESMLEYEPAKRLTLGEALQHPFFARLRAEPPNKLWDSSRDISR

With `O=C(NCc1cccc(Cl)c1)c1cc2cc(O)ccc2s1` [Compound 3, N-(3-Chlorobenzyl)-5-hydroxybenzo[b]thiophene-2-carboxamide], the melting point (usually the temperature, or range, at which the solid turns liquid) lay in the range of 211.2 to 212.3 °C. The inhibition at 1 µM on Clk2 stood at 46%. Besides, the inhibition at 1 µM on Clk3 came out at 22%. The inhibition at 20 µM in the series on Hela cells turned out to be 50.5 ± 3.93%. In addition, on Dyrk1B, the IC50 – broadly, the concentration at which inhibition is half-maximal – amounted to 0.53 µM and the inhibition at 1 µM came to 66%. In addition, on Clk1, the IC50 is 0.257 µM and the inhibition at 1 µM was determined as 79%. Besides, at Dyrk1A, the IC50 amounted to 0.751 µM and the inhibition at 1 µM was found to be 60%. Further, the inhibition at 20 µM in the series with MCF-7 cells came to 15.6 ± 3.85%. Further, the inhibition at 20 µM with U87 cells was found to be 32.2 ± 4.76%. In the series on HCT-116 cells, the inhibition at 20 µM came to 25.9 ± 2.54%. Moreover, the inhibition at 20 µM with A549 cells is 54.7 ± 3.77%.

`COc1cccc(CNC(=O)c2cc3cc(O)ccc3s2)c1` [Compound 12, 5-Hydroxy-N-(3-methoxybenzyl)benzo[b]thiophene-2-carboxamide]: the inhibition at 1 µM on Clk2 worked out at 62%; against Clk3, 26%; at Dyrk1B, 81%; on Clk1, 86%; at Dyrk1A it was 65%. For the same compound, the IC50 on Clk2 was 0.617 µM; at Dyrk1B, 0.238 µM; on Clk1, 0.153 µM; on Dyrk1A, 0.536 µM; with U87 cells (CCK-8, 50% inhibition of viability), 16.5 µM; in the series on HCT-116 cells, 6.4 µM. The inhibition at 20 µM in the series with Hela cells was found to be 50.7 ± 2.41%; with MCF-7 cells it was 93.5 ± 0.17%; in the series on U87 cells it was 60.1 ± 6.16%; with HCT-116 cells, 75.7 ± 0.31%; with A549 cells it was 41 ± 8.96%.

With `COc1ccccc1CNC(=O)c1cc2cc(O)ccc2s1` [Compound 11, 5-Hydroxy-N-(2-methoxybenzyl)benzo[b]thiophene-2-carboxamide], the melting point fell in the range of 128.5 to 130.7 °C. The same compound came in with an inhibition at 1 µM against Clk2 of 50%. The same compound registered an inhibition at 1 µM on Clk3 of 24%. Moreover, in the series with Hela cells, the inhibition at 20 µM is 62.1 ± 1.97% and the IC50 is 19.3 µM. Also, on Dyrk1B, the IC50 came out at 0.578 µM and the inhibition at 1 µM is 64%. In addition, on Clk1, the IC50 came to 0.725 µM and the inhibition at 1 µM is 60%. Also, at Dyrk1A, the IC50 worked out at 0.565 µM and the inhibition at 1 µM turned out to be 64%. The inhibition at 20 µM in the series on MCF-7 cells worked out at 56.4 ± 4.47%. In the series on U87 cells, the inhibition at 20 µM came to 18.1 ± 0.81%. In the series on HCT-116 cells, the inhibition at 20 µM was found to be 0%. Moreover, in the series with A549 cells, the inhibition at 20 µM worked out at 34.7 ± 3.91%.

Take `O=C(NCc1cccc(F)c1)c1cc2cc(O)ccc2s1` [Compound 6, N-(3-Fluorobenzyl)-5-hydroxybenzo[b]thiophene-2-carboxamide]: the melting point is 176.7 to 177.7 °C. The same compound displayed an inhibition at 1 µM at Clk2 of 38%. Further, on Clk3, the inhibition at 1 µM stood at 27%. Besides, the inhibition at 20 µM in the series with Hela cells was 53.3 ± 2.22%. In addition, at Dyrk1B, the IC50 is 0.406 µM and the inhibition at 1 µM is 71%. At Clk1, the IC50 was 0.41 µM and the inhibition at 1 µM came out at 72%. At Dyrk1A, the IC50 was 0.666 µM and the inhibition at 1 µM worked out at 60%. The inhibition at 20 µM with MCF-7 cells was determined as 16.2 ± 2.2%. In the series on U87 cells, the inhibition at 20 µM came to 21 ± 5.07%. Also, the inhibition at 20 µM in the series with HCT-116 cells was 60.1 ± 3.11%. Besides, the inhibition at 20 µM in the series with A549 cells is 36.5 ± 1.57%.

Turning to `O=C(NCc1cc(F)cc(F)c1)c1cc2cc(O)ccc2s1` [Compound 17, N-(3,5-Difluorobenzyl)-5-hydroxybenzo[b]thiophene-2-carboxamide], the inhibition at 1 µM at Clk2 came to 62%; on Clk3 it was 26%; on Dyrk1B, 81%; at Clk1, 85%; on Dyrk1A, 67%. The IC50 is 0.708 µM at Clk2; 18.1 µM in the series on Hela cells; 0.242 µM on Dyrk1B; 0.168 µM on Clk1; 0.495 µM at Dyrk1A; 8.1 µM in the series with HCT-116 cells. Further, the inhibition at 20 µM with Hela cells was 60.9 ± 2.82%; with MCF-7 cells it was 20.9 ± 2.02%; in the series with U87 cells, 47.3 ± 5.65%; in the series on HCT-116 cells, 67.6 ± 0.58%; with A549 cells, 38.8 ± 4.06%. Besides, the “Improvement in inhibitory activity against Dyrk1B compared to compound 1” value at Dyrk1B (ratio of IC50 vs compound 1) is 4 fold. Further, the “Improvement in inhibitory activity against Clk1 compared to compound 1” value on Clk1 (ratio of IC50 vs compound 1) was 4 fold.

The record behind these values is paper PMC11171218, “N-Benzylated 5-Hydroxybenzothiophene-2-carboxamides as Multi-Targeted Clk/Dyrk Inhibitors and Potential Anticancer Agents” (Cancers, 2024).
